Laboratory results reported in PubChem BioAssay (NCI).
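Tested at 5 concentrations; 48 h exposure; 96-well plates; endpoints linearly interpolated, else capped at highest concentration. The concentration for full growth arrest is given as TGI.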

Experiments:
Experiment in all cases: NCI tumour cell line growth inhibition, 48 h
OVCAR-4 ovarian = tested on: OVCAR-4 ovarian
ACHN renal = tested on: ACHN renal
UO-31 renal = tested on: UO-31 renal
KM12 colon = tested on: KM12 colon
EKVX NSCLC = tested on: EKVX NSCLC
SK-MEL-2 melanoma = tested on: SK-MEL-2 melanoma
SK-MEL-28 melanoma = tested on: SK-MEL-28 melanoma
UACC-257 melanoma = tested on: UACC-257 melanoma
HL-60(TB) leukemia = tested on: HL-60(TB) leukemia

Row | Compound | TGI (OVCAR-4 ovarian) | TGI (ACHN renal) | TGI (UO-31 renal) | TGI (KM12 colon) | TGI (EKVX NSCLC) | TGI (SK-MEL-2 melanoma) | TGI (SK-MEL-28 melanoma) | TGI (UACC-257 melanoma) | TGI (HL-60(TB) leukemia)
1 | O=C(CC(=O)C1CCOC1=O)C(=O)Nc1ccc(Cl)cc1 (stereo not given) | > 100 µM | > 100 µM | > 100 µM | > 100 µM | > 100 µM | > 100 µM | > 100 µM | > 100 µM | > 100 µM
2 | O=c1[nH]cnc2c1ncn2CCCCO | > 100 µM | > 100 µM | > 100 µM | > 100 µM | > 100 µM |  | > 100 µM | > 100 µM | > 100 µM
3 | Cc1cc(C)nc(NS(=O)(=O)c2ccc(NC(=O)c3cccc4c(N)c5ccccc5nc34)cc2)n1 | > 100 µM | > 100 µM | > 100 µM | > 100 µM | > 100 µM | > 100 µM | > 100 µM | > 100 µM | 
4 | COC(=O)c1nc(N)nc(C(=O)OC)c1C(=O)c1ccccc1 |  | > 100 µM | > 100 µM | > 100 µM | > 100 µM | > 100 µM | > 100 µM | > 100 µM | > 100 µM
5 | CC(=O)O[C@H]1CC[C@@]2(C)C(=C/C(=N\[N+](=O)[O-])[C@H]3C4CCC([C@H](C)CCCC(C)C)[C@@]4(C)CCC32)C1 (stereo not given in full) | > 100 µM | > 100 µM | > 100 µM |  | > 100 µM | > 100 µM | > 100 µM | > 100 µM | > 100 µM
6 | CC(C)c1cccc(C(C)C)c1NC(=O)C(=O)C1SC(=S)NC1=O (stereo not given) | > 100 µM | > 100 µM | > 100 µM | > 100 µM | > 100 µM | > 100 µM | > 100 µM | > 100 µM | > 100 µM
7 | O=S(=O)(N/N=C/c1ccc(Cl)cc1Cl)c1ccccc1 | > 100 µM | > 100 µM | > 100 µM | > 100 µM | > 100 µM | > 100 µM | > 100 µM | > 100 µM | 56.9 µM
8 | [O-][n+]1c2cc(CN3CCOCC3)c(CN3CCOCC3)cc2[n+]([O-])c2c(O)cccc21 | 9.81 µM | 26.3 µM | 10.4 µM | 8.55 µM | 20.2 µM | 12.1 µM | 32.5 µM | 16.3 µM | 10.9 µM
9 | COc1cc(/C=C\c2ccc(Cl)cc2)cc(OC)c1OC | > 100 µM | > 100 µM | > 43.6 µM | > 100 µM | > 87.5 µM | 16.3 µM | > 67.5 µM | 39.2 µM | 2.45 µM
10 | CCOC(=O)C1Oc2ccc([N+](=O)[O-])cc2C1(C)O (stereo not given) | > 100 µM | > 100 µM | > 100 µM | > 100 µM | > 100 µM | > 100 µM | > 100 µM | > 100 µM | > 100 µM
11 | CCOC(=O)/C=C1\Oc2ccccc2C1(C)O (stereo not given) | > 100 µM | > 100 µM | > 100 µM | > 100 µM | > 100 µM | > 100 µM | > 100 µM | > 100 µM | > 100 µM
12 | Cc1cccc(N=C2NC(=O)C(CC(=O)Nc3ccccc3Cl)S2)c1 (stereo not given) | > 100 µM | > 100 µM | > 100 µM |  | > 100 µM | > 100 µM | > 100 µM | > 100 µM | > 100 µM
13 | Nc1ccc(C2=Nc3ccccc3SC(c3ccccc3O)C2)cc1 (stereo not given) | > 100 µM | > 100 µM | > 100 µM | > 100 µM | > 100 µM | > 100 µM | > 100 µM | > 100 µM | 62.7 µM
14 | COc1ccc(/C=N\O[Si](C)(C)C(C)(C)C)cc1O[Si](C)(C)C(C)(C)C | 46.3 µM | 33.3 µM | 27.9 µM | 32.7 µM | 41.6 µM | 31.5 µM |  | 43.3 µM | 38.1 µM
15 | NNC(=S)N/N=C(/C(=O)Nc1ccc([N+](=O)[O-])cc1)c1nc2ccc([N+](=O)[O-])cc2[nH]c1=O | > 100 µM | > 100 µM | > 100 µM | > 100 µM | > 100 µM | > 100 µM | > 100 µM | > 100 µM | > 100 µM
16 | COC(=O)C1C(/C=C/c2ccoc2)ON2CCC[C@@H]12 (stereo not given in full) | > 100 µM | > 100 µM | > 100 µM | > 100 µM | > 100 µM | > 100 µM | > 100 µM | > 100 µM | > 100 µM
17 | Cc1cc(Cl)ccc1NC(=O)C(=O)Cc1occc(=O)c1O | > 100 µM | > 100 µM | > 100 µM | > 100 µM | > 100 µM | > 100 µM | > 100 µM | > 100 µM | > 100 µM
18 | O=c1[nH]c2c(c3ccccc13)CCc1ccccc1-2 | > 100 µM | > 100 µM | > 100 µM | > 100 µM | > 100 µM | > 100 µM | > 100 µM | > 100 µM | 
